From patent publication US7799830B2, “Cinnamic acid dimers, their preparation and the use thereof for treating neurodegenerative disease” (Korea Institute of Science and Technology, priority 2002, dated 2010)

Columns and labels:
Spraque-Dawley rats = assay: oral toxicity test of cinnamic acid dimers; type: in vivo
Method: Twenty female and twenty male Spraque-Dawley rats aged 4 weeks were divided into four groups including 5 female and 5 male rats, after being raised in a vivarium of a temperature of 22±3° C., a relative humidity of 50±10%, an illumination of 150-300 Lux for 1 week.
The cinnamic acid dimers prepared in Example 1 were dissolved in corn oil, and the rats of the 4 groups were orally administered with the solution at a dose of 300, 1,000, 3,000 and 10,000 mg/kg once. […] In addition, the rats were killed on the seventh day after administration, dissected, and internal organs were examined with the unaided eye. Daily weight change was measured from the administration day and thus the weight decrease of animals attributed to cinnamic acid dimers was observed.

[1] = tested on: mice administered with beta-amyloid; assay: passive avoidance test (learning and memory-retention ability of mice); type: in vivo; conditions: mice given compound and beta-amyloid (1-42); 24 h after training; maximum 300 seconds; average of 10 mice; FIG. 1
Method: Four groups of 10 mice aged 4-5 weeks, weighing 20-25 g were used in the experiment. Each sample was administered with 1% DMSO and 1% CMC using a Sonde once a day (samples: A—physiological salin solution; B—beta-amyloid; C—cinnamic acid dimer (example 1) and beta-amyloid). After injecting […] of each sample to the cerebral ventricle 3 consecutive days, passive avoidance test was conducted on the first and second day for following the last injection. All data was attained by the average of 10 mice.
In order to examine the learning and memory-retention ability of a mouse, a passive avoidance test was carried out in accordance with the method described in Song et al, J. Neurochem., 1998, 71, 875. A passive avoidance chamber equipped with a light room and a dark room was prepared, wherein the floor of the dark room was designed to deliver an electrical shock to the test animal. First, a mouse was put in the light room and, upon entering the dark room, an electrical shock of 0.25 mA was given to the animal for 1 second. […] Then, the time it took for the mouse to enter the dark room was measured as a passive avoidance time. The maximum restriction time was set at 300 seconds, i.e., in cases where the mouse took more than 300 seconds to enter the dark room, the passive avoidance time was determined to be 300 seconds.

COc1cc(C=CC(=O)O)ccc1OCCOc1ccc(C=CC(=O)O)cc1OC [Example 1, 1,2-di[2-methoxy-4-(2-carboxylvinyl)]phenoxyethane]
pathological changes of internal organs at dissection (Spraque-Dawley rats; group administered with 5,000 mg/kg or less, seventh day after administration, unaided eye): No pathological changes were seen with the naked eye
LD50 (Spraque-Dawley rats; single oral dose in corn oil, observed for 7 days, both males and females): 5,000 mg/kg
step-through latency (passive avoidance time) compared with mice administered with beta-amyloid only [1]: significantly higher
